{"source": "paper PMC11493595", "about": "“Stretching the structural envelope of imatinib to reduce β-amyloid production by modulating both β- and γ-secretase cleavages of APP” (Frontiers in Chemistry, 2024)", "key": {"BACE1": {"tested_on": "BACE1", "parameters": "method as in Netzer et al., 2017", "settings": "two in vitro BACE1 assays, concentrations up to 100 μM; ref Netzer et al., 2017; cited from earlier work"}, "N2a695 cells": {"tested_on": "N2a695 cells", "test": "Screening of Aβ production in N2a695 cells (Aβ ELISA of cell supernatants)", "format": "cell-based", "procedure": "N2a695 were cultured in 1:1 OptiMem Reduced Serum Media (Life Technologies): Dulbecco’s Modified Eagle Medium ([+] 4.5 g/L D-glucose [+] L-Glutamine; [−] Sodium pyruvate (Life Technologies) supplemented with 5% fetal bovine serum, 0.4% Penstrep and 0.4% Geneticin and incubated at 37°C in 5% CO2. Antibodies were obtained from The Laboratory of Molecular and Cellular Neuroscience at The Rockefeller University. Human Aβ40 and Aβ42 ELISA plates (Life Technologies) and Plus MSD (Mesoscale Discovery) plates for Aβ Peptide (Aβ38, Aβ40 and Aβ42) Panel 1 (6E10) Kit (Catalog number K15200G) were obtained from Thermo Fisher, Life Technologies and Meso Scale Discovery.\nN2a695 cells were used to screen all new compounds and in the follow-up studies with compounds found active in the preliminary screen. In a typical experiment, 6-well tissue culture plates (Corning) were seeded at 4.0 × 10^5–4.5 × 10^5 N2a695 cells/mL, 2 mL/well for overnight incubation. When cells were >95% confluent, media were exchanged with fresh media containing 10 µM solutions of compounds or DMSO carrier alone and cells were incubated at 37°C in 5% CO2 for 5 h. Culture media were collected and soluble Aβ concentrations in the media were determined by ELISA or MSD plates for human Aβ peptides as per manufacturer instructions. Signals for Aβ were measured using Perkin Elmer Envision and SQ120 MSD ELISA reader. Follow-up studies with N2a695 cells were performed similarly.\nSpecifically, we exposed N2a695 cells to increasing concentrations of each compound and measured the production of Aβ38, 40, and 42. […] Remarkably, this occurs for all Aβ peptides tested shorter than 40 amino acids (Figure 2C). Moreover, for some compounds that modulate γ-secretase activity most conspicuously at 5 μM, this effect vanishes at 10 μM, relative to controls (Figure 2B, C). […]"}, "Abl1 kinase": {"target": "T1, Abl1 kinase (Homo sapiens, UniProt P00519)", "T1 sequence (P00519 242-493 limits assumed)": "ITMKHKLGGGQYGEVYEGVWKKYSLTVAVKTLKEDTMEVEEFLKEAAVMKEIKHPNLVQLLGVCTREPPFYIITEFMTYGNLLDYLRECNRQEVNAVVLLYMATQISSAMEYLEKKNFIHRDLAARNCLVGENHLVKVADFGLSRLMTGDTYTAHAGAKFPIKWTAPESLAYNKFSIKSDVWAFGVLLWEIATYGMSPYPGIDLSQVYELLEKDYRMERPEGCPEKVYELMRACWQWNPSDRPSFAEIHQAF", "test": "In vitro kinase activity assay (split-luciferase, Luceome)", "format": "biochemical", "settings": "read-out: IC50, Abl kinase", "procedure": "The assay was performed by Luceome Biotechnologies, LLC. Typically, 10 mM stock solutions of the compounds were diluted in DMSO to a concentration of 250 μM. Prior to initiating the assay, all test compounds were evaluated for false positive against split-luciferase ([Jester et al., 2010]). For kinase assays, each Cfluc-Kinase was translated along with Fos-Nfluc using a cell-free system (rabbit reticulocyte lysate) at 30°C for 90 min 24 μL aliquot of this lysate containing either 1 μL of DMSO (for no-inhibitor control) or compound solution in DMSO (10 μM final concentration) was incubated for 30 min at room temperature followed by 1 h in presence of a kinase specific probe. 80 μL of luciferin assay reagent was added to each solution and luminescence was immediately measured on a luminometer. The percent Inhibition was calculated using the following equation: % Inhibition = (ALUcontrol–ALUsamplex 100)/ALUcontrol."}, "[1]": {"tested_on": "β- and γ-cleavages of APP", "test": "Aβ in N2a cells transiently transfected with APP-FL or APP99 (APP-βCTF): BACE vs γ-secretase cleavage", "format": "cell-based", "settings": "N2a cells transiently transfected with APP695 (APP-FL) or APP C99, 5 h", "procedure": "To determine effects of compounds on BACE1 vs. GS inhibition, we used N2a cells transiently transfected with full length APP (APP-FL) or with APP99 (APP-βCTF) as described previously ([Netzer et al., 2017]; [Sun et al., 2019]). After 48 h, media were removed and fresh media containing compound 1a and analogs were added. Following 5 h of incubation, cell supernatants were collected, and analyzed using MSD-ELISA for Aβ and sAPPα and western blot for sAPPβ.\nWe focused on IMTi-1 and its analogs 1d, 1f and 1p. […] To test whether these compounds lower Aβ levels by affecting the BACE and/or γ-secretase cleavages, we transfected wild-type (wt) cells with APP-FL and APP βCTF (C99), respectively, and incubated the cells with IMTi-1 (isomer) and analogs 1d, 1f and 1p. We used BACE inhibitor, MK8931, and γ-secretase inhibitor, DAPT, as controls and performed the experiments and processed the results as described previously ([Sun et al., 2019])."}}, "note": "Where a name gives a salt, the structure may show the parent alone.", "data": [{"compound": "Cc1ccc(NC(=O)c2ccc(CN3CCN(C)CC3)cc2)cc1Nc1nccc(-c2cccnc2)n1", "note": "[IMT, imatinib mesylate, reference compound]", "values": [{"measurement": "Inhibition of BACE1 enzymatic activity", "setting": "BACE1", "value": "does not inhibit BACE1 enzymatic activity"}, {"measurement": "Activity in Aβ production assays", "setting": "N2a695 cells; N2a695 cells", "value": "active"}]}, {"compound": "Cc1ccccc1Nc1nccc(-c2cncc(NC(=O)c3ccc(CN4CCN(C)CC4)cc3)c2)n1", "note": "[IMTi-1]", "values": [{"measurement": "IC50", "setting": "Abl1 kinase", "value": 1170, "unit": "nM"}, {"measurement": "Aβ38 levels relative to controls", "setting": "N2a695 cells; 5 μM, N2a695 cells, ELISA", "value": "boost levels of Aβ38 above controls"}, {"measurement": "Reduction of Aβ40 levels compared with IMT", "setting": "N2a695 cells; 10 µM, N2a695 cell supernatants, anti-Aβ40 ELISA", "value": "reduced Aβ40 levels more strongly than IMT"}, {"measurement": "Activity in Aβ production assays", "setting": "N2a695 cells; N2a695 cells", "value": "active"}, {"measurement": "BACE and γ-secretase cleavage of APP, Aβ levels", "setting": "[1]", "value": "lower BACE and γ-secretase cleavage of APP"}]}]}
